According to US8809310B2, “Use of rasagiline for the treatment of multiple system atrophy” (priority 2006, dated 2014):
Read-outs that look alike come from different tables or passages of the source.

What was measured:
[1] = system: (PLP) α-synuclein transgenic mice; details: mouse, in vivo
Excerpt: (§1) Sections underwent the following immunohistochemical stainings: tyrosinehydroxylase antibody (Sigma) used to visualize dopaminergic neurons in SNc, dopamine and cyclic adenosine 3′,5′-monophosphate-regulated phosphoprotein 32 (DARPP-32)(New York Hospital-Cornell Medical Centre) used to visualize medium sized spiny neurons in striatum and Purkinje cells in cerebellar cortex, Glial Fibrillary Acidic Protein (GFAP)(Roche Diagnostics GmBH) used to visualize astroglial reaction, CD11b (Serotec) used to visualize microglial reaction and Bcl-2, Bcl-X1 and Bax apoptic/anti-apoptotic markers. One full series was stained with cresyl violet.
(§2) The following antibodies were used in this study: monoclonal anti-DARPP-32 (1:2000), monoclonal anti-TH (Sigma, St. Louis, Mo., 1:500), monoclonal anti-GFAP (Roche, Vienna, Austria 1:100), monoclonal anti-CD11b (Serotec, Oxford, UK, 1:100), polyclonal anti-activated capase 3 (Transduction Laboratories, Lexington, Ky., 1:200), monoclonal anti-Bax (Santa Cruz Biotechnology, 1:100), monoclonal anti-Bc12 (Santa Cruz Biotechnology, 1:100), and monoclonal anti-BclX (Chemicon, Temecula, Calif., 1:100). Secondary antibodies were biotinylated horse anti-mouse IgG, goat anti-rat IgG, or goat anti-rabbit IgG (Vector, Burlingame, Calif.). Immunohistochemical reaction was developed with 3,3′-diaminobenzidine.

[2] = system: (PLP) α-synuclein transgenic mice
Experimental: The stride length of the hindlimbs of the mice was measured at baseline and before sacrificing them after a habituation to the test for 3 days before its performance. The limbs of each animal were wetted with a non-toxic food color and the mouse was let to run on a strip of paper (42 cm long, 4.5 cm wide) down a bright corridor towards a dark goal box. After four runs, the stride length of the forelimbs and the hindlimbs on each side was measured, excluding the beginning (7 cm) and the end (7 cm) of the run. The mean stride length for was determined.
Stride length test was performed on day 18-19 and day 27-28 after first 3-NP intoxication.

[3] = system: (PLP) α-synuclein transgenic mice; details: any of the time points studied (day 16, day 26)
Experimental: To test the locomotor activity of the mice we applied the Flex Field Activity System, (San Diego Instruments, San Diego, Calif.) which allows monitoring and real-time counting of horizontal and vertical locomotor activity by 544 photo-beam channels. Mice were placed in the center of the open field (40.5×40.5×36.5 cm) and tested for a 15 min period always at the same time of the day (5.00 p.m.). The tests were performed in a dark room that was completely isolated from external noises and light during the test period. The sum of counts in the horizontal and vertical plane at day 16 and on day 26 of the experiment was further analyzed.

[4] = system: early Parkinson's disease patients; details: rasagiline-treated subjects; cited from earlier work
[5] = system: (PLP) α-synuclein transgenic mice; details: MSA mice (3-NP +), N=10
Excerpt: A suitable model for MSA is described by Stefanova et al. (Am. J. Pathol. March 2005, 166(3):869-76; Trends Neurosci. 2005, 28(9):501-6). This model acts by inducing oxidative stress in transgenic mice with oligodendroglial α-synuclein expression. […] The selective neuronal cell death pattern typical of MSA is achieved by combining mitochondrial inhibition by 3-nitropropionic acid (3-NP).
A total of 36 (PLP) α-synuclein transgenic mice over 6 months of age were used.
Chronic intoxication with 3-NP was done according to a previously used paradigm pathiology (i.e. 4×10 mg/kg, 4×20 mg/kg, 4×40 mg/kg, 4×50 mg/kg intraperitoneal injections every 12th hour for a period of two weeks) to model MSA pathology.
The mice were further divided into groups as follows: Control group (saline tested, n=10), low dose rasagiline group (0.6 mg/kg; n=10) and high dose rasagiline group ([…]; n=10). Rasagiline was delivered subcutaneously every 24 hours starting 24 hours one week before the intoxication with 3-NP and lasting for an additional week, i.e., for a total period of 4 weeks.

[6] = system: (PLP) α-synuclein transgenic mice; details: daily rating, whole experimental period
Experimental: Behavioral tests were performed blindly to the treatment status according to the following procedures and described in Fernagut et al.: clinical scale, stride length, spontaneous locomotor activity.
The groups were evaluated daily during the whole experimental period with a general motor score according to a previously published rating scale.
A previously described rating scale (Fernagut et al., Subacute systemic 3-nitropropionic acid intoxication induces a distinct motor disorder in adult C57B1/6 mice: Behavioural and histopathological characterization, Neuroscience 2002; 114:1005-17) was used for evaluation of hindlimb clasping, general locomotor activity, hindlimb dystonia, truncal dystonia and postural challenge response (0, normal; 1 slightly disturbed, and 2 markedly disabled). […] A total daily score per animal for each session was determined as well as a total sum score per animal per group for the whole testing period.

[7] = system: (PLP) α-synuclein transgenic mice; details: fourth week (day 25)
Experimental: The pole test (Id.; and Matsuura et al., Pole test is a useful method for evaluating the mouse movement disorder caused by striatal dopamine depletion, Journal of Neuroscience Methods 1997; 73:45-8) was performed on day 17 and day 25 of the experiment. Each mouse was habituated to the test the day before. A wooden vertical pole with rough surface, 1 cm wide and 50 cm high was applied. The mouse was placed with the head up at the top of the pole and the time for turning downwards (Tturn) as well as the total time for climbing down the pole until the mouse reached the floor with the four paws (Ttotal) was taken in 5 trials. The best performance of all the five trials was kept for the statistical analysis (Fernagut et al., In vivo models of multiple system atrophy, Mov Disord. 2005; 20 Suppl 12:S57-S63). If a mouse was unable to perform the test, a default value of 120 s was taken into account.

MAO-B = MAO-B (Mus musculus, UniProt Q8BW75); details: for MAO-B activity (mean dpm ± SD): MSA mice, brain homogenate, 14C-PEA 10 μM, end of experiment
MAO-B, sequence (Q8BW75 whole entry): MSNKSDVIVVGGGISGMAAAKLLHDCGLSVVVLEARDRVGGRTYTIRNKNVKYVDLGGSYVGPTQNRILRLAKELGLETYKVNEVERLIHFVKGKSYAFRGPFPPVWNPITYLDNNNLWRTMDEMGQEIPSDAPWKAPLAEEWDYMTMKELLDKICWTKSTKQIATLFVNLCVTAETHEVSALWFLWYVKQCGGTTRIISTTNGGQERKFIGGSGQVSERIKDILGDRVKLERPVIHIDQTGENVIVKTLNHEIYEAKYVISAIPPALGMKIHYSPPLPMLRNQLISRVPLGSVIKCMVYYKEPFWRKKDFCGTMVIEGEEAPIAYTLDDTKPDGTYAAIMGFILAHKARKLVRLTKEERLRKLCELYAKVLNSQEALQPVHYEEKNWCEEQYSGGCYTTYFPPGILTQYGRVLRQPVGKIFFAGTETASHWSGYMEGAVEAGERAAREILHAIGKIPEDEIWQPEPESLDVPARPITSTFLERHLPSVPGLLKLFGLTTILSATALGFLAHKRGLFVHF
Experimental: (§3) Efficacy of Rasagiline treatment was determined by biochemical measurement of the inhibition of MAO-A and MAO-B activity in the different treatment groups. Two mice per group were sacrificed under deep thiopental anesthesia by cervical […]. Brains were immediately removed and snap-frozen in liquid nitrogen and further stored at −80° C. Tissue homogenates were preincubated with clorgyline or deprenyl in order to inhibit MAO-A or MAO-B respectively. Incubation was carried on with 14C-labeled PEA (10 μM) for MAO-B determination and 14C-HT (100 μM) for MAO-A determination. Reaction was stopped by acidification and labeled metabolites were extracted into toluene/ethyl acetate and counted by beta-counter.

MAO-A = MAO-A (Mus musculus, UniProt Q64133); details: for MAO-A activity (mean dpm ± SD): MSA mice, brain homogenate, 14C-HT 100 μM, end of experiment
MAO-A, sequence (Q64133 whole entry): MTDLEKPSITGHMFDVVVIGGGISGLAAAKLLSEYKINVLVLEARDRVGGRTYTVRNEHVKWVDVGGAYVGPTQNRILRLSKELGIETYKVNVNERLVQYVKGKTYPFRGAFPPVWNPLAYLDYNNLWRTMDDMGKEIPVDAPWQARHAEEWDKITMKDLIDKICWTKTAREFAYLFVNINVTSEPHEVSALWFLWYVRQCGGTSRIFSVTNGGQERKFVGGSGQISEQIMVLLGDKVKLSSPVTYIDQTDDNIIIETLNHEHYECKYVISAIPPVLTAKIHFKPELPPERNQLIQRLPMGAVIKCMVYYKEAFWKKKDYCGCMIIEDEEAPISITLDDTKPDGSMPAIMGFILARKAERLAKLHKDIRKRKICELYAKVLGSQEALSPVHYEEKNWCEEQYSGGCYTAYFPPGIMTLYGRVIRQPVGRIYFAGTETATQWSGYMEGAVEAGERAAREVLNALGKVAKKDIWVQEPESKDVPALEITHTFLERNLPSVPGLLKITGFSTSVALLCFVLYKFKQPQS
Experimental: as §3

[8] = system: (PLP) α-synuclein transgenic mice; remark: listed apart in the source
Experimental: Neuropathological examination of the brains was performed after transcardial perfusion of 4% paraformaldehyde (PFA) under deep thiopental anesthesia. Brains were quickly removed, postfixed in the same fixative for 1 hour at 4° C., and then kept in 25% sucrose solution until they sunk. The brains were slowly frozen in with 2-methylbutan and kept at −80° C. until processing. Serial sections throughout the whole brain were cut on a freezing microtome (Leica, Nussloch, Germany).
as §1, §2
All morphometric analyses were done blinded to the treatment of the animal's observer. Stereology was applied using a computer-assisted image analysis system (Nikon E-800 microscope, Nikon digital camera DXM 1200; Stereo Investigator Software, MicroBrightField Europe e.K., Magdeburg, Germany). […] Purkinje cells in the cerebellum and glial reaction throughout the entire brain are analyzed to the Paxinos and Franklin mouse brain atlas (1997, Academic Press, San Diego). Purkinje cells were counted in a region outlined to include only the Purkinje cell layer (German et al., Degeneration of neurons and glia in the Niemann-Pick C mouse is unrelated to the low-density lipoprotein receptor. Neuroscience, 2001; 105:999-1005).

[9] = 2.5 mg/kg daily for 4 weeks, without reaching neuronal numbers of healthy controls

C#CCN[C@@H]1CCc2ccccc21 [Rasagiline, R(+)-N-propargyl-1-aminoindan]
CD11b staining pattern (microglial activation), treated vs untreated mice [1]: No differences | GFAP staining pattern (astroglial activation), treated vs untreated mice [1]: No differences | stride length ([2]; day 18-19): reversed shortened stride length | stride length ([2]; day 27-28): reversed stride length impairment | open field activity [3]: observed neither upon open field activity | rearing behavior [3]: nor on rearing behavior | most commonly reported adverse events [4]: pain, headache and dizziness | side effects typical of other dopaminergic medications (hallucinations, somnolence, edema, nausea, vomiting, diarrhea) [4]: infrequently reported | Mortality N (%) ([5]; Rasagiline 0.8 mg/kg b.w.): 2 (20) N (%) | Mortality N (%) ([5]; Rasagiline 2.5 mg/kg b.w.): 1 (10) N (%) | general motor impairment (general motor score) [6]: significant improvement | pole test T-total (prolonged movement time) [7]: significantly reduced | pole test T-turn (prolonged movement time) [7]: significantly reduced | MAO-B activity (mean dpm ± SD) (MAO-B; Rasagiline 0.8 mg/kg): 370.01 ± 321 dpm | MAO-B activity (mean dpm ± SD) (MAO-B; Rasagiline 2.5 mg/kg): 80.94 ± 14 dpm | inhibition of MAO activity (MAO-B) (MAO-B; both concentrations): significant inhibition | MAO-A activity (mean dpm ± SD) (MAO-A; Rasagiline 0.8 mg/kg): 1463.10 ± 219 dpm | MAO-A activity (mean dpm ± SD) (MAO-A; Rasagiline 2.5 mg/kg): 724.06 ± 65 dpm | inhibition of MAO activity (MAO-A) (MAO-A; both concentrations): significant inhibition | protection of Purkinje cells [8, 9]: partial protection | protection of neurons of the inferior olives [8, 9]: partial protection | protection of pontine nuclei against 3-NP intoxication ([8]; mouse, in vivo): completely protected | loss of striatal DARPP-32-immunoreactive medium spiny neurons ([8]; striatum, did not reach levels of non-intoxicated controls): partially prevented | loss of TH-immunopositive neurons in SNc ([8]; substantia nigra pars compacta): completely protected
